In brackets after ≈: the same amount, converted by molar mass. Marks after values point to notes of the source that are not given here. Values belong to the molecule of their own block, whether it stands above or below them.
Columns and labels:
[1] = test system: HL-60 (promyelocytic leukemia); test: MTT cell viability assay, HL-60; type: cell-based; conditions: Homo sapiens, MTT after 72 hours
Procedure: (§1) The following cell lines were used in this assay: HL-60 (promyelocytic leukemia); Jurkat (T cell leukemia); CCRF-CEM (lymphoblastic leukemia); CEM/C2 (camptothecan resistant derivative of CCRF-CEM).
(§2) Cells were seeded in 96 wells plates at 3000 cells per well and incubated for 16 hours. Compound dilutions were performed in DMSO from 10 mM with 3 fold dilutions. Titrations were diluted 1:100 in media to achieve final compound concentrations. The 96 well plates were aspirated and compound dilutions in media were added ([…]). MTT analysis was carried out after 72 hours of incubation at 37° C. Briefly, […] of MTT solution was added to each well. Cells were incubated at 37° C. for 1-2 hours. Cells were lysed with the addition of […] cell lysis buffer and MTT was solubilized overnight at 37° C. Plates were read on a spectromax machine with an absorbance measurement at […]. IC50's were calculated (data provided in Table 1) using regression analysis within GraphPad Prism.

[2] = test system: CCRF-CEM (lymphoblastic leukemia); test: MTT cell viability assay, CCRF-CEM; type: cell-based; conditions: Homo sapiens, MTT after 72 hours
Procedure: as §1, §2

[3] = test system: CEM/C2 (camptothecan resistant derivative of CCRF-CEM); test: MTT cell viability assay, CEM/C2; type: cell-based; conditions: Homo sapiens, MTT after 72 hours
Procedure: as §1, §2

[4] = test system: CCRF-CEM acute lymphoblastic leukemia tumor; test: CCRF-CEM xenograft model; type: in vivo
Procedure: CCRF-CEM acute lymphoblastic leukemia tumor lobes of 2-3 mm square were transplanted subcutaneously into nude mice. Tumors were allowed to grow to approximately 8-20 mm in diameter. […] Acceptable toxicity was defined as a mean group weight loss of 30% or less and not more than one toxic death among 6 treated animals. Anti-tumor activities of the drugs were assessed 20 or 21 days after the start of administration. FIGS. 1-2 and Table 2 provides data for tumor inhibition rate (IR) and survival ratio in the CCRF-CEM and LM3-Jck xenograft models.

[5] = test system: LM3-Jck human malignant lymphoma tumor; test: LM3-Jck xenograft model; type: in vivo; conditions: LM3-JcK
Procedure: LM3-Jck human malignant lymphoma tumor lobes (2-3 mm square) were transplanted subcutaneously into nude mice. Tumors were allowed to grow to approximately 7-14 mm in diameter. […] Acceptable toxicity was defined as a mean group weight loss of 30% or less and not more than one toxic death among 6 treated animals. Anti-tumor activities of the drugs were assessed 21 days after the start of administration.

[6] = test system: peripheral neutrophils, white blood cells, platelets; test: Combination dosing SNS-595 and Ara-C (Example 5): peripheral cytology; type: in vivo, nu/nu mice
Procedure: At various time points described in Table 5, mice were euthanized by CO2 asphyxiation in accordance to Institutional Animal Care and Use Committee (IACUC) guidelines. Blood was collected through cardiac tap and transferred to EDTA tubes. The analysis of murine blood CBC and differential counts for samples in these tubes was conducted (at Quality Clinical Labs, Moutainview). Statistical significance was determined by one-tailed student t-test, using Welch's correction for unequal variances.

[7] = test system: femoral bone marrow; test: Combination dosing SNS-595 and Ara-C (Example 5): femoral bone marrow cellularity; type: in vivo, nu/nu mice
Text: Femurs were harvested for histological evaluation. The femur was placed in Streck fixative, paraffin embedded, sectioned, transferred to slides, and H&E stained (at BioPathology Sciences). Immunohistochemical slides were processed and analyzed for percent cellularity of intact bone marrow.

[8] = test system: bone marrow; test: Monotherapy and combination with Ara-C (Example 6): bone marrow total cellularity; type: in vivo, Female CD-1 mice; conditions: for Total Cellularity (Avg) Exp #1: two days after completion of treatment
Procedure: Blood was analyzed at Quality Control Labs (Mountain View, Calif.) for complete blood count and differential count. Bone marrow smears from femurs on Day 6 and Day 12 were prepared and geimsa stained for differential counts. Femurs were also placed in Streck fixative, processed, sectioned and H&E stained. Femur and bone marrow smears were analyzed at BioPathology Sciences (South San Francisco, Calif.) for total cellularity and differential count. […] The compounds were administered on Day 0 and Day 4.

[9] = in vivo; conditions: CD-1, mouse
[10] = Combination dosing SNS-595 and Ara-C (Example 5): body weight changes
Procedure: The effects of dosing were studied on changes in body weight, peripheral cytology, and femoral bone marrow cellularity over time as described below.
Before beginning the study, all animals were allowed to acclimatize for 3 days from shipping related stress and the health of the mice was assessed daily by observation. Purified water (reverse osmosis) and irradiated food (PicoLab Rodent Diet 20, #5053; Dean's Animal Feeds, San Carlos, Calif.) were provided ad libitum, and the animals were kept on a 12 hour light and dark cycle.

[11] = CCRF-CEM, 100 mg/kg q4d × 3, IV
[12] = Ara-C 20, 40 and 60 mg/kg tid q4d ×2
[13] = Group 5: Ara-C 20 mg/kg SC tid q4d × 2
[14] = Group 6: Ara-C 40 mg/kg SC tid q4d × 2
[15] = Group 7: Ara-C 60 mg/kg SC tid q4d × 2

SMILES: CCc1c2c(nc3ccc(OC(=O)N4CCC(N5CCCCC5)CC4)cc13)-c1cc3c(c(=O)n1C2)COC(=O)[C@]3(O)CC [Irinotecan]
IC50 [1]: 0.905 µg/mL (≈ 1.54 µM) | IC50 [2]: 0.479 µg/mL (≈ 0.816 µM) | IC50 [3]: 44.4 µg/mL (≈ 75.7 µM) | IR (%) tumor inhibition rate [4, 11]: 99.7* % | Survival Ratio [4, 11]: 5/6 | IR (%) tumor inhibition rate ([5]; 100 mg/kg q4d × 3, IV): 97.7* % | Survival Ratio ([5]; 100 mg/kg q4d × 3, IV): 6/6

IC50 [1]: 0.024 µg/mL (≈ 0.0442 µM) | IC50 [2]: 0.003 µg/mL (≈ 0.00552 µM) | IC50 [3]: 0.017 µg/mL (≈ 0.0313 µM)
SMILES: COc1cccc2c1C(=O)c1c(O)c3c(c(O)c1C2=O)C[C@@](O)(C(=O)CO)C[C@@H]3O[C@H]1C[C@H](N)[C@H](O)[C@H](C)O1 [Doxorubicin]
IR (%) tumor inhibition rate ([4]; CCRF-CEM, 12 mg/kg q7d × 3, IV): 50.3* % | IR (%) tumor inhibition rate ([5]; 12 mg/kg q7d × 3, IV): 57.2* %

IC50 [1]: 0.136 µg/mL (≈ 0.231 µM)
SMILES: COc1cc([C@@H]2c3cc4c(cc3[C@@H](O[C@@H]3O[C@@H]5CO[C@@H](C)O[C@H]5[C@H](O)[C@H]3O)[C@H]3COC(=O)[C@H]23)OCO4)cc(OC)c1O [Etoposide]
IR (%) tumor inhibition rate ([4]; CCRF-CEM, 12 mg/kg qd × 5, IV): 28.3% | Survival Ratio ([4]; nude, mouse, in vivo, iv, 12 mg/kg): 6/6 | IR (%) tumor inhibition rate ([5]; 12 mg/kg qd × 5, IV): 3.0%

SMILES: Nc1ccn([C@@H]2O[C@H](CO)[C@@H](O)[C@@H]2O)c(=O)n1 [Ara-C, cytarabine]
day of nadir of number of neutrophils ([6]; Ara-C 20 mg/kg tid q4d ×2): 6 days | day of nadir of platelets ([6]; Ara-C 40 mg/kg tid q4d ×2): 8 days | number of white blood cells versus vehicle group ([6]; Ara-C 60 mg/kg, day 8): significantly lower than the vehicle group | circulating white blood cells, dose response [6, 12]: dose-dependent reduction | day of nadir of platelets ([6]; Ara-C 20 and 60 mg/kg tid q4d ×2): 6 days | day of nadir of number of neutrophils ([6]; Ara-C 40 and 60 mg/kg tid q4d ×2): 8 days | day by which neutrophils returned to normal levels ([6]; Ara-C all dose levels): ≤ 12 days | day by which platelets returned to normal levels ([6]; Ara-C all dose levels): ≤ 12 days | recovery of white blood cells ([6]; Ara-C all dose levels): failed to return to normal levels by day 18 | number of platelets versus vehicle group ([6]; Ara-C all dose levels, day 6 and day 8): significantly lower than the vehicle group | number of neutrophils versus vehicle group ([6]; Ara-C all dose levels, day 8): significantly lower than the vehicle group | reduction in cellularity ([7]; Ara-C 20 mg/kg SC three times a day, single agent): 12% | bone marrow cellularity, dose response ([7]; Ara-C single agent 20, 40, 60 mg/kg): No dose dependent reduction | total cellularity, femur cross section of representative animal ([7]; Day 6, Ara-C 20 mg/kg tid q4d ×2 SC, Animal #83): 90% | total cellularity, femur cross section of representative animal ([7]; Day 6, Ara-C 40 mg/kg tid q4d ×2 SC, Animal #103): 90% | total cellularity, femur cross section of representative animal ([7]; Day 6, Ara-C 60 mg/kg tid q4d ×2 SC, Animal #122): 50% | total cellularity, femur cross section of representative animal ([7]; Day 12, Ara-C 60 mg/kg tid q4d ×2 SC, Animal #134): 50% | Average Total Cellularity Day 6 [7, 13]: 88% | Average Total Cellularity Day 6 [7, 14]: 90% | Average Total Cellularity Day 6 [7, 15]: 58% | Average Total Cellularity Day 12 [7, 15]: 99% | Total Cellularity (Avg) Exp #2 ([8]; Ara-C 20 mg/kg tid q4d ×2): 92% | Total Cellularity (Avg) Exp #1 ([8]; Ara-C 20 mg/kg tid q4d × 2): 88% | Total Cellularity (Avg) Exp #2 ([8]; Ara-C 60 mg/kg tid q4d × 2): 54% | Total Cellularity (Avg) Exp #1 ([8]; Ara-C 60 mg/kg tid q4d × 2): 58% | MTD [9]: 60 mg/kg | day of maximum body weight loss [10, 12]: 7 days | maximum body weight loss [10, 12]: ≤ 2% | % of Body Wt Nadir [10, 13]: −0.3% | Day of Body Wt Nadir [10, 13]: 7 days | % of Body Wt Nadir [10, 14]: 0% | Day of Body Wt Nadir [10, 14]: 0 days | % of Body Wt Nadir [10, 15]: −1.7% | Day of Body Wt Nadir [10, 15]: 7 days

From patent US20080063642A1, “Methods of using (+)-1,4-dihydro-7-[(3S,4S)-3-methoxy-4-(methylamino)-1-pyrrolidinyl]-4-oxo-1-(2-thiazolyl)-1,8-naphthyridine-3-carboxylic acid for treatment of certain hematologic disorders” (priority 2006, published 2008)
